Measured values taken from US10010504B2, “Compositions and methods including celecoxib and plumbagin relating to treatment of cancer” (The Penn State Research Foundation, priority 2013, dated 2018).

Test system: UACC 903 melanoma cells
Assay: Thermal stability in DMSO at 60° C., efficacy by MTS assay
Conditions: DMSO solution

heating time acceptable without decreasing efficacy [min]	SMILES	effect of prolonged exposure to 60° C. on compound activity
≤ 20	Cc1ccc(-c2cc(C(F)(F)F)nn2-c2ccc(S(N)(=O)=O)cc2)cc1 [celecoxib, 4-[5-(4-Methylphenyl)-3-(trifluoromethyl)-1H-pyrazol-1-yl]benzenesulfonamide]	–
–	CC1=CC(=O)c2c(O)cccc2C1=O [plumbagin, 5-hydroxy-2-methyl-1,4-napthoquinone]	did not affect compound activity
